Assay results taken from US11377423B2, “Inhibitors of histone deacetylase” (The Broad Institute, Inc., priority 2012, dated 2022).
Where “and” joins values, the source holds several entries; their conditions need not be identical. Equal values may be shown once. Entries after “also recorded” stand apart in the source; their conditions may differ. Read-outs that look alike come from different tables or passages of the source.

Assays:
HDAC8 = HDAC8 (Homo sapiens (Human), UniProt Q9BY41); experiment: Caliper HDAC enzymatic endpoint assay, HDAC8; assay type: biochemical; settings: Table 2C; read-out: HDAC8 IC50 after 0 hr preincubation
Chain of HDAC8 (Q9BY41 whole entry): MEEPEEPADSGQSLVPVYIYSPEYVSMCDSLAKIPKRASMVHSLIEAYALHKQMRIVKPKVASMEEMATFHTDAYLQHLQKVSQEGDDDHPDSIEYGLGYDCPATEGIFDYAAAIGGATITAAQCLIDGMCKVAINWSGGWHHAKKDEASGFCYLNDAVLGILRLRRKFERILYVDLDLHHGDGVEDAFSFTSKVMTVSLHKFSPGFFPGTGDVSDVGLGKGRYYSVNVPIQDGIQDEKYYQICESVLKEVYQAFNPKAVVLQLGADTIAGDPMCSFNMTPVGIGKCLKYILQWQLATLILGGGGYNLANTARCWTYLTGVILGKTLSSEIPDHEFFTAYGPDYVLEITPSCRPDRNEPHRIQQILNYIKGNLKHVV

INS-1E cells [1] = experiment: Insulin gene Ins1 and Ins2 expression by qPCR; assay type: cell-based, rat; settings: 10 μM, glucolipotoxicity, 24 h
Procedure: INS-1E cells (one million/well) were seeded in 6-well plates in 2 mL complete medium. After two days, medium was removed and cells were exposed to 2 mL medium/well with the indicated concentrations of palmitate, glucose, HDAC inhibitors and/or vehicle. RNA was purified (Qiagen) and cDNA synthesis performed done according to manufacturers' guidelines (Applied Biosystems) and real-time PCR performed using the SYBR green method (Applied Biosystems). Each cDNA sample in triplicate was subjected to two individual PCR amplifications either for the gene of interest or the reference gene β-actin. See table below for primer sequences. Compounds of the invention counteract glucolipotoxic reductions in insulin gene […] and […] expression. […] The gene expression in FIGS. 13A and 13B were analyzed by qPCR. […] Glucose-stimulated insulin secretion and total insulin content were assessed by ELISA. Data are presented as fold to CTRL+SEM, n=3-5, ns=not significant, *p<0.05, **p<0.01, ***p<0.001 vs. CTRL, #p<0.05, ##p<0.01, ###p<0.001 vs. respective treatment. ANOVA with Tukey- or Dunnet-corrected test, or Student's t-test (insulin content).

INS-1E cells [2] = experiment: ROS formation (CM-H2DCFDA probe); assay type: cell-based, rat; settings: 10 μM, GLT, 48 hrs
Procedure: INS-1E cells (50,000 cells/well) were seeded in 96-well plates in 100 uL complete medium. Two days after incubation, medium was removed and cells exposed to 100 uL medium/well with the indicated concentrations of palmitate, glucose, test compounds and/or vehicle. After 24 hours, cells were aspirated and incubated for 45 min in phenol […] RPMI (Invitrogen) containing 10 μM CM-H2DCFDA probe (Molecular Probes). Wells were subsequently washed twice with phenol red-free RMPI, incubated for 3 min with Hoechst 33342 (10 ug/mL) in phenol red-free media, followed by a final washing step. Fluorescence was captured by an IX Micro automated fluorescence microscope (Molecular Devices) and quantification of ROS per cell was analyzed using MetaXpress software (Molecular Devices). Each condition was assayed in five biological replicates. Glucolipotoxicity causes oxidative stress in β cells via increased ROS formation from mitochondria. […] ROS formation per cell (48 hrs) was measured using the CM-H2DCFDA probe and Hoechst staining. Data are presented as fold to CTRL+SEM n=3-4, ns=not significant, **p<0.01, ***p<0.001 vs unexposed cells; #p<0.05, ##p<0.01, vs. GLT treated cells, ANOVA with Tukey corrected test.

[3] = test system: human megakaryocyte progenitors; experiment: Growth of human megakaryocyte progenitors (surrogate assay for platelet depletion); assay type: cell-based; settings: 0.1, 1, 10 and 20 μM, relative to DMSO treated cells
Procedure: Compounds of the invention were evaluated for their effect on the growth of human megakaryocyte progenitors (surrogate assay for platelet depletion). Human CD34+ cells were grown in a collagen-based gel (Megacult-C, Stemcell Technologies). […] 100% indicates no difference in cell viability relative to the DMSO treated cells. […] This is the desired effect.

INS-1E cells [4] = experiment: ER stress / UPR markers by qPCR and immunoblotting; assay type: cell-based, rat; settings: 10 μM, GLT
Procedure: INS-1E cells (one million/well) were seeded in 6-well plates in 2 mL complete medium. After two days, medium was removed and cells were exposed to 2 mL medium/well with the indicated concentrations of palmitate, glucose, HDAC inhibitors and/or vehicle. RNA was purified (Qiagen) and cDNA synthesis performed done according to manufacturers' guidelines (Applied Biosystems) and real-time PCR performed using the SYBR green method (Applied Biosystems). Each cDNA sample in triplicate was subjected to two individual PCR amplifications either for the gene of interest or the reference gene β-actin. See table below for primer sequences. INS-1E cells (one million/well) were seeded in 6-well plates in 2 mL complete medium. After two days, medium was removed and cells were exposed to 2 mL medium/well with the indicated concentrations of palmitate, glucose, test compounds and/or vehicle. Cells were lysed using Passive Lysis Buffer (Promega) containing protease inhibitors (Roche). Lysates were adjusted for protein concentration (Bradford) and protein separated by SDS-PAGE and transferred to PVDF membranes. Blots were developed using a chemiluminescence detection system (SuperSignal, Thermo Fisher Scientific), and light emission was captured using an Imaging Station 4000MM (Carestream). […] Gene expressions (vehicle=open bars, compound 1=light grey bars, GLT=black bars, GLT and compound 1=dark grey bars) were analyzed by qPCR (FIGS. 14A, 14B, 14D, 14E, and 14F) and protein levels (FIGS. 14C and 14G) (24 h) by immunoblotting. Representative blots are shown. Data are presented as fold to CTRL+SEM n=3-4, ns=not significant, *p<0.05, **p<0.01, ***p<0.001 vs unexposed cells; #p<0.05, ##p<0.01, ###p<0.001 vs. GLT treated cells, ANOVA with Tukey corrected test.

HDAC9 = HDAC9 (Homo sapiens (Human), UniProt Q9UKV0); experiment: Caliper HDAC enzymatic endpoint assay, HDAC9; assay type: biochemical; settings: Table 2C; read-out: HDAC9 IC50 after 0 hr preincubation
Chain of HDAC9 (Q9UKV0 whole entry): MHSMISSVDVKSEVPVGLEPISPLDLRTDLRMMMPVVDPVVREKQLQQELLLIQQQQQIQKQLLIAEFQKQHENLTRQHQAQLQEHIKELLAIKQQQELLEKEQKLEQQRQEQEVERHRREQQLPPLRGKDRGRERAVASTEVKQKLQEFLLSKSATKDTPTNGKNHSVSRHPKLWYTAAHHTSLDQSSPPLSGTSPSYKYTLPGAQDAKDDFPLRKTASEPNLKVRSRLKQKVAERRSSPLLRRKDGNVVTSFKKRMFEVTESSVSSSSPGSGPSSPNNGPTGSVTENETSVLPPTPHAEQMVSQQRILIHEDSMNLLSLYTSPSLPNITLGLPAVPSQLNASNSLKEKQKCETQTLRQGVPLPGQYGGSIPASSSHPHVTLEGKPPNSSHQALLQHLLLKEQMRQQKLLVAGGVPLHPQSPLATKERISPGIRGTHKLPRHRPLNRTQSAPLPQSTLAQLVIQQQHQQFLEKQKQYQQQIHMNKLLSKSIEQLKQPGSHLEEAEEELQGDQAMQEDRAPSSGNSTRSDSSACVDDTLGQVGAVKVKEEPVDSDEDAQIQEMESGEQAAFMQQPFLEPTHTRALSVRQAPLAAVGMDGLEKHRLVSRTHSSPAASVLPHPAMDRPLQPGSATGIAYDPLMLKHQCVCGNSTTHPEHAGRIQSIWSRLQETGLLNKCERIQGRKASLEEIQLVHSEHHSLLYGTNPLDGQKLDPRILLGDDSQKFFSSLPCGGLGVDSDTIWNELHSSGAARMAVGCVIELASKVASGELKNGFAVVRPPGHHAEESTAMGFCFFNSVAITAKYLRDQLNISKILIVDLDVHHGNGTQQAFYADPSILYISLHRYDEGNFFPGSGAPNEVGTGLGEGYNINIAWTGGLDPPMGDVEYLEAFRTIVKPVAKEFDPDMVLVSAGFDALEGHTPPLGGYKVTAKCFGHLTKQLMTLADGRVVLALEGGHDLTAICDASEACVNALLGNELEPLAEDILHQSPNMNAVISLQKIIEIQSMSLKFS

HDAC3 = HDAC3 (Homo sapiens (Human), UniProt O15379); experiment: Kinetics of the inhibition of HDAC3
Chain of HDAC3 (O15379 whole entry): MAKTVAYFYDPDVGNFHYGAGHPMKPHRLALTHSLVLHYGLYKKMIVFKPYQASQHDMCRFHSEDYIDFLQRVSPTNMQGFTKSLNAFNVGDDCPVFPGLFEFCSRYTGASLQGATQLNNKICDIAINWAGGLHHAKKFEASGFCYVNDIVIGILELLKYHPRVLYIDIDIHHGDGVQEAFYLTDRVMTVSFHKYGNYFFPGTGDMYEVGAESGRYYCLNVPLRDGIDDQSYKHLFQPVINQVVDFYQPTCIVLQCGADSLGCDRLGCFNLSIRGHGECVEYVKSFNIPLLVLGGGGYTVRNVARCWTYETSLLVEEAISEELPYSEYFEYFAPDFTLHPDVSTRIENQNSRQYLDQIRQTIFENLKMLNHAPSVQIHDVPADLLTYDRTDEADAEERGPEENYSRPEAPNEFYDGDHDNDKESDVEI
Chain of HDAC3 (Q9Y618 395-489 partner): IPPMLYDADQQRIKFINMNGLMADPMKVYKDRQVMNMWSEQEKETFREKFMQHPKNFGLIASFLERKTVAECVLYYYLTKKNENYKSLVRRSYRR

HDAC7 = HDAC7 (Homo sapiens (Human), UniProt Q8WUI4); experiment: Caliper HDAC enzymatic endpoint assay, HDAC7; assay type: biochemical; settings: Table 2C; read-out: HDAC7 IC50 after 0 hr preincubation
Chain of HDAC7 (Q8WUI4 whole entry): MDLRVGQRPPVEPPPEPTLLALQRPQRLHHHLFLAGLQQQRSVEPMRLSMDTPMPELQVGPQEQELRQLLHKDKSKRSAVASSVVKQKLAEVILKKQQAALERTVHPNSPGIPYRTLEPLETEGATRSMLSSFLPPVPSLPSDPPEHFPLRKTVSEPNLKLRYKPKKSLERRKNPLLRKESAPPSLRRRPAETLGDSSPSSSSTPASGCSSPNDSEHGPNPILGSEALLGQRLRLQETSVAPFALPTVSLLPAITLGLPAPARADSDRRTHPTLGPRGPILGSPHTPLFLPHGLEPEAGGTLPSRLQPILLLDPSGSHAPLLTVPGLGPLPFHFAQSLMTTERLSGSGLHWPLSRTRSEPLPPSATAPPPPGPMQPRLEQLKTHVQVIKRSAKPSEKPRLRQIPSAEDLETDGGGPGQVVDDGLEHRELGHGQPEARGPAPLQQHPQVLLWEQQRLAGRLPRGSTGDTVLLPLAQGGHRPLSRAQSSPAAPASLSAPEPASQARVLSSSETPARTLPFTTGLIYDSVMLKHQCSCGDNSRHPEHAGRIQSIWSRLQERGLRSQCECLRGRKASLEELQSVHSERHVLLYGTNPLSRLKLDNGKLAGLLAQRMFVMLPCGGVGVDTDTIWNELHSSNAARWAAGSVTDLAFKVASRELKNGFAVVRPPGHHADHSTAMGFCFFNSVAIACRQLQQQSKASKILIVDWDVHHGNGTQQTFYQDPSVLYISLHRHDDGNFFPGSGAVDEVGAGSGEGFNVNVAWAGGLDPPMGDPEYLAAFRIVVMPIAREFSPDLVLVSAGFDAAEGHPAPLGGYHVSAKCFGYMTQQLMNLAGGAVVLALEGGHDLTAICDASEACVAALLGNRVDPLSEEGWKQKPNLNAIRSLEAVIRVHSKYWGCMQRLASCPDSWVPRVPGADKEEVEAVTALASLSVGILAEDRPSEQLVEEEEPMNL

IC50 (HDAC8): > 33 µM
IC50 (HDAC9): > 33 µM
koff (HDAC3): 0.000147 s⁻¹
Ki (HDAC3; HDAC3): 0.029 µM
Kon (HDAC3; HDAC3): 0.30 min^−1, uM^−1 and 0.3 min^−1, uM^−1
koff (HDAC3; HDAC3): 0.000147 s⁻¹
type of binding to HDAC3 (words) (HDAC3; HDAC3): slow, tight-binding inhibitor
type of binding to HDAC3 (words) (HDAC3; HDAC3, listed as compound 1): fast on/slow off binding
T1/2 (HDAC3; HDAC3 residence): 1.32 h
binding selectivity (Ki) for HDAC3 versus HDAC1 (HDAC3; thermodynamic (Ki)): 175 fold
binding selectivity (Ki) for HDAC3 versus HDAC2 (HDAC3; thermodynamic (Ki)): 217 fold
IC50 (HDAC7): > 33 µM
SMILES: CC(=O)Nc1ccc(C(=O)Nc2ccc(F)cc2N)cc1 [Compound 1, 4-acetamido-N-(2-amino-4-fluorophenyl)benzamide]
insulin gene Ins1 expression (INS-1E cells [1]): partially restoring insulin gene Ins1 expression
insulin gene Ins2 expression (INS-1E cells [1]): partially restoring insulin gene Ins2 expression
glucolipotoxicity-induced ROS formation (INS-1E cells [2]): reduces glucolipotoxicity-induced ROS formation
effect on growth and viability of human megakaryocyte progenitor cells [3]: does not significantly inhibit cell growth; also recorded: no significant effect on growth and viability
Atf4 transcription factor induction (INS-1E cells [4]): did not affect Atf4 transcription factor induction
levels of the ER chaperone Bip mRNA (INS-1E cells [4]): did not change
splicing of Xbp1 to Xbp1s (INS-1E cells [4]): did not affect splicing
ATF4-mediated induction of Chop (INS-1E cells [4]; 9 hrs): decreased
ATF4-mediated induction of Atf3 (INS-1E cells [4]; 24 hrs): decreased
CHOP mRNA and protein induction (INS-1E cells [4]; 24 hrs): completely reversed
phosphorylation of JNK (pJNK/tJNK) (INS-1E cells [4]; 24 hrs): inhibited phosphorylation of JNK
